Source: patent US10420850B2, “Method of imaging with a chelating agent” (ENDOCYTE, INC., priority 2015, dated 2019)

System: FR positive human xenograft models
Assay: Mouse imaging: ^99mTc biodistribution and microSPECT/CT
Type: in vivo
Details: intravenous, tumor-bearing mice
Experimental: Etarfolatide kits were used for the preparation of ^99mTc-chelated radioactive drug substance. Radiochemical purity of ^99mTc-etarfolatide was determined by HPLC attached to a radiodetector. ^99mTc-etarfolatide was investigated in vivo using mice bearing FR positive human xenograft models. Test articles were administered intravenously in mice via the lateral tail vein. ^99mTc biodistribution was determined by removing selected tissues and measuring their radioactivity content in an automatic gamma-counter. High resolution three dimensional images of the radiolabel were obtained on a dual microSPECT/CT system.

Structure (SMILES): [NH-][C@@H](CNC(=O)CC[C@@H](NC(=O)c1ccc(NCc2cnc3nc(N)[nH]c(=O)c3n2)cc1)C(=O)O)C(=O)[N-][C@@H](CC(=O)O)C(=O)[N-][C@@H](C[S-])C(=O)O.[O]=[Tc+4] [^99mTc-etarfolatide]
- Time after which levels in normal FR-negative tissues had cleared to near baseline: 4 to 8 h
- Time tumor retention remained near maximum: approximately 18 hours
- Time of peak tissue levels post injection (FR-expressing tumor and kidney): 1 h
